Experimental data reported in patent US9320271B2, “Microbial composition” (Rohm and Haas Company, priority 2011, dated 2016).
“And” between values parts separate entries of the source, which are not always exact repeats. Identical values can stand only once.

What was measured:
[1] = test system: Escherichia coli (E. coli—ATCC #10536); test: Synergy test: high resolution MBC microtiter plate assay, phosphate buffer containing 35% dipropylene glycol, 15 seconds contact; type: cell-based; details: E. coli 10536
Excerpt: The concentrations and ratios may also vary under different test conditions or with different test methods.
One measure of synergy is the industrially accepted method described by Kull, F. C.; Eisman, P. C.; Sylwestrowicz, H. D, and Mayer, R. L., in Applied Microbiology 9:538-541 (1961), using the ratio determined by the formula: […]=Synergy Index (“SI”) wherein; QA=concentration of compound A (first component) in percent, acting alone, which produced an end point (MBC of Compound A). Qa=concentration of compound A in percent, in the mixture, which produced an end point. QB=concentration of compound B (second component) in percent, acting alone, which, produced an end point (MBC of Compound B). Qb=concentration of compound B in percent, in the mixture, which produced an end point.
When the sum of Qa/QA and Qb/QB is greater than one, antagonism is indicated. […] The lower the SI, the greater is the synergy shown by that particular mixture. The minimum biocidal concentration (MBC) of a microbicide is the lowest concentration tested under a specific set of conditions that provides complete kill of the tested microorganisms.
Synergy tests were conducted using standard microliter plate assays with phosphate buffer containing 35% dipropylene glycol (DPG). In this method, a wide range of combinations of chemicals was tested by conducting high resolution MBC assays of Component (A) in the presence of various concentrations of Component (B). High resolution MBCs were determined by adding varying amounts of microbicide to one column of a microliter plate and doing subsequent […] dilutions using an automated liquid handling, system to obtain a series of closely spaced endpoints. The MBC plate was inoculated one column at a time with the test microorganism. An aliquot of the inoculated well was transferred at 15 seconds to a plate containing a neutralizing agent (D/E Neutralizing Broth), mixed and held for 5 minutes before being transferred to a growth plate containing trypticase soy broth (TSB). The TSB plate was incubated at 37° C. and read for the presence/absence of growth at 24 hours. The lowest level tested that provided complete kill (as evidenced by no growth in the microtitre plate) of the test organisms in 15 seconds is the minimum biocidal concentration (MBC).
The synergy of the combinations of the present invention was determined against a bacterium, Escherichia coli (E. coli—ATCC #10536), at a concentration of approximately 1×10^8 it bacteria per mL. This microorganism is representative of natural contaminants in many consumer and industrial applications.

[2] = test system: Staphylococcus aureus (10788 strain); test: 15 second contact kill test / antimicrobial efficacy of actives against S. aureus in water; type: cell-based
Method: Selected materials were also tested against a representative Grant positive Staphylococcus aureus. An overnight culture of Staphylococcus aureus (10788 strain) was inoculated onto a […] Soy Agar (TSA) plate and grown for ca. 18 hrs at 37° C. The culture S. aureus was washed from the plate using sterile saline (0.85% NaCl) solution and a sterile spreader and suspended in 50 ml saline. This suspension was separated into equal volumes and centrifuged at 4000 rpm for 15 minutes. […] Here, OD620 indicates the absorbance of a sample in a cuvette of 1.0 cm path length at a wavelength of 620 nm. This bacterial stock was used for assaying against antimicrobial actives (in triplicate). The following assay describes the testing of 8 materials using 6 dilutions across half of a 96-well micro titre plate (MTP). Using this approach it is possible to assay 16 actives (without replicates) with one full dilution plate, replicating this set up in two halves of the plate columns, 1-6 and 7-12. 1M solutions of the test actives were prepared in dimethylsulphoxide (DMSO). […] Aliquots (270 μl) of the materials at 1.11 times the final concentration were dispensed into the wells of the MTP along one column (A1-H1). This MTP was labelled as the “Screening plate”. In another MTP, labelled as the “Dilution plate”, […] of D/E neutralising solution from DIFCO Composition was added to column 1. The composition of the neutralising solution was as follows: pancreatic digest of casein, 5.0 g/L; […] Dextrose, 10 g/L, sodium thioglycollate, 1.0 g/L, sodium thiosulphate, 6.0 g/L; sodium bisulphite, 2.5 g/L; […] […] From the colony number in this segment, NMBS is calculated by the formula: NMBS=log {Ncol·10^DF·100/3} Here, Ncol is the colony count, and DF is the dilution factor taken from the MTP-well corresponding to the TSA plate segment (i.e. DF may range from 1 for the quench, to 6 for the highest dilution). […] Here, OD620 indicates the absorbance of a sample in a cuvette of 1.0 cm path length at a wavelength, of 620 nm. […]

C=C(C)C1CC=C(CO)CC1 (stereo not shown) [(4-(prop-1-en-2-yl)cyclohex-1-enyl)methanol]
SI (Synergy Index) ([1]; at Qa and Qb, less than one = synergy): 1.00
MBC of the component acting alone (QA / QB; Qa or Qb where the other component is 0) ([1]; complete kill in 15 seconds, component alone): 0.5 weight % and 0.3 weight %
S. aureus 6538 Log Reduction ([2]; 0.2% perillyl alcohol alone): 0.22
S. aureus 6538 Log Reduction ([2]; 0.25 Perillyl alcohol alone): 0.5
